In patent US20150359742A1, “COMPOSITIONS AND METHODS FOR ENHANCING THE TOPICAL APPLICATION OF A BENEFIT AGENT INCLUDING POWDER TO LIQUID PARTICLES AND A SECOND POWDER” (Johnson & Johnson Consumer Inc., priority 2014, published 2015):

Test system: Pigmented human epidermal equivalents (MelanoDerm™)
Test: In vitro test for depigmentation activity in pigmented human epidermal equivalents (MelanoDerm, MEL-300-B)
Format: cell-based
Conditions: applied topically daily for 8 days, measured on day 9
Excerpt: Pigmented human epidermal equivalents (MelanoDerm™) from MatTek Corporation (Ashland, Mass.) were used to assess the depigmentation activity of test materials. MelanoDerm™ consists of normal, human-derived epidermal keratinocytes (NHEK) and melanocytes (NHM) which have been cultured to form a multilayered, highly differentiated model of the human epidermis. Specifically, MEL-300-B tissues, each 9 mm in diameter were used in the following tests.
The Example 2 ascorbic acid powder mixture was compared with 1% Ascorbic Acid 2-Glucoside (Hayashibara Co Ltd, Japan) in a solvent of 70% ethyl alcohol and 30% butylene glycol as a benchmark. Test materials were applied topically to the MelanoDerm™ skin model daily and the experiment lasted for 8 days. Measurement was taken on day 9. The macroscopic and microscopic visual tissue darkening end points were measured by taking pictures with a digital camera. The Degree of Lightness for each tissue (L-Value) was measured using a spectrophotometer (Konica Minolta CM-2600d). The ΔL (degree of lightness as compared to control) for each test sample is calculated as per following formula: […]
Degree of skin lightness:
ΔL*=L*-value of treated sample−L*-value of control sample.
ΔMexa Index=Melanin Index of control−Melanin Index of treated sample.

Structure (SMILES): O=C1O[C@H]([C@@H](O)CO)C(O)=C1O[C@H]1O[C@H](CO)[C@@H](O)[C@H](O)[C@H]1O [1% ascorbic acid 2-glucoside in vehicle, Ascorbic Acid 2-Glucoside]
- Δ Mexa Index (Melanin Index of control minus treated sample): 145.67
- Δ L-value (degree of skin lightness, treated minus control) (spectrophotometer): 2.34
